The results in this text go back to patent US11834453B2, “Substituted pyrimido[5,4-d]pyrimidines as HER2 inhibitors” (Array BioPharma Inc., priority 2020, dated 2023).

As a reminder, the IC50 is the concentration at which inhibition is half-maximal. A word on the efflux ratio: it is the permeability from basolateral to apical divided by that in the opposite direction, in the common usage.

Where only a bound is given, the exact number is not on record here.

For data set [1], the target named is ErbB2 insYVMA (HER2-YVMA, SEQ ID NO: 2) (Homo sapiens, UniProt P04626, INS775YVMA/P1170A). The data set can be described thus: biochemical. Conditions: ErbB2 insYVMA enzyme assay; read-out: Assay 1 IC50.
Chain of ErbB2 insYVMA (HER2-YVMA, SEQ ID NO: 2) (P04626 with tags, fused parts or gaps INS775YVMA/P1170A limits assumed): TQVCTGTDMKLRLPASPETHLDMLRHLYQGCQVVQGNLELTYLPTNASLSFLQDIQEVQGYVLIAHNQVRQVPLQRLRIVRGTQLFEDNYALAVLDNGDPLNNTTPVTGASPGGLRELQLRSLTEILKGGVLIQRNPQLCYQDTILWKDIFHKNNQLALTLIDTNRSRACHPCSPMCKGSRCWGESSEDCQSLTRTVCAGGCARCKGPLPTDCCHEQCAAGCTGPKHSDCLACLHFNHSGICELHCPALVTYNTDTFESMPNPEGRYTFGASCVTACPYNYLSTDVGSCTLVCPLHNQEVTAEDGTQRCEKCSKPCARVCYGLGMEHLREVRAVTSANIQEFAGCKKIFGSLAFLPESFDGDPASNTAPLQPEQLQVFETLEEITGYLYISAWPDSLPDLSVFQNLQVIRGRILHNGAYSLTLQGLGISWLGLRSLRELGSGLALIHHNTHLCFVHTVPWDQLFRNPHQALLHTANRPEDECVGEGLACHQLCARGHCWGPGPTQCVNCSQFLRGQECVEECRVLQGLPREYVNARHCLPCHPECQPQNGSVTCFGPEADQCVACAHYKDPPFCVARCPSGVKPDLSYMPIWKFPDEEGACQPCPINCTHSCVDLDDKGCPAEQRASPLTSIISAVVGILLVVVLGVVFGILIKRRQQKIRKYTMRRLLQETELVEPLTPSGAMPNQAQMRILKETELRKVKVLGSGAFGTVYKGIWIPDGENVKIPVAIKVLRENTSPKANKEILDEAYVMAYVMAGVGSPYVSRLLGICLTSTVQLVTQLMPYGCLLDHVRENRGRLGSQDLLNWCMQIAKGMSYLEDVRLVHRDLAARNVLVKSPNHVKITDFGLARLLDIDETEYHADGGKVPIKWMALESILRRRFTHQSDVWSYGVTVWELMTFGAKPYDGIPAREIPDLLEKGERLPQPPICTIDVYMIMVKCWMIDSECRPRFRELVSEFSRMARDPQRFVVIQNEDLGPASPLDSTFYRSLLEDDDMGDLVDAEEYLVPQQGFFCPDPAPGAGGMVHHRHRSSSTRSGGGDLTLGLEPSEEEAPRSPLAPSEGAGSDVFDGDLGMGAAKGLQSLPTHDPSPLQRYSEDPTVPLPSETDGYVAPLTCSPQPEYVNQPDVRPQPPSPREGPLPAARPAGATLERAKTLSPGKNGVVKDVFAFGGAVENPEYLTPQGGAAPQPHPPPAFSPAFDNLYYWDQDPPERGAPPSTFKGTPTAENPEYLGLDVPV
Another data set concerns the target ErbB2 WT (Homo sapiens (Human), UniProt P04626). The data set can be described thus: ErbB enzyme assay (CisBio HTRF KinEASE-TK), Assay 2. The class given is biochemical. Put shortly: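 ErbB2 phosphorylates 250 nM biotin-TK substrate at 1 mM ATP in 25 mM HEPES pH 7.4, 10 mM MgCl2, 0.01% Triton X-100 and 2% DMSO, for 30 min at 22 °C. Product is detected by HTRF with Sa-XL665 and TK-Ab-Cryptate. Percent of control is set by DMSO-only wells and pre-quenched wells.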
In general terms: Time-resolved FRET reads energy transfer from a long-lived donor to a nearby acceptor.

In a further data set the target is EGFR (Homo sapiens (Human), UniProt P00533). The data set can be described thus: ErbB enzyme assay (CisBio HTRF KinEASE-TK), Assay 3. The class given is biochemical. In short, it runs like this:
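Kinase + 250 nM biotin TK-substrate, 1 mM ATP, cpd (3-fold dil.), HEPES pH 7.4/10 mM MgCl2/0.01% Triton/2% DMSO; 30 min 22 °C. Quench w/ Sa-XL665 + TK-Ab-Cryptate, 1 h, HTRF. IC50 = 50 POC on 4PL fit.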

Data set [2] concerns the target ErbB2 with Exon 20 YVMA insertion (HER2-YVMA) (Homo sapiens (Human), UniProt P04626, INS775YVMA). In words: Cellular phosphorylation assay, constitutive ErbB2 phosphorylation (Y1196) in engineered NIH 3T3 cells, Assay 4. The class given is cell-based. In short, it runs like this:
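Engineered NIH 3T3 cells expressing HER2-YVMA treated with compounds 1 h at 37 °C, then formaldehyde-fixed and methanol-permeabilized. pErbB2 Y1196 detected by in-cell infrared immunofluorescence, normalized to GAPDH. IC50 from the normalized curves.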

For a further data set, the target named is EGFR wild type (EGFR WT) (Homo sapiens (Human), UniProt P00533). The data set can be described thus: Cellular phosphorylation assay, EGF-stimulated EGFR phosphorylation in engineered NIH 3T3 cells, Phospho-EGFR DuoSet IC ELISA, Assay 5. It is filed as cell-based. Put shortly: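 NIH 3T3 cells expressing EGFR WT (20,000/well, attached overnight) were exposed to serially diluted compound for 1 h at 37 °C, then stimulated with 100 ng/ml rEGF for 10 min. Phospho-EGFR in lysates measured by sandwich ELISA optical density; IC50 from curves.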
(An ELISA detects its analyte on a solid surface through an enzyme-linked reagent.)

A further data set addresses MDR1 (P-gp) (Homo sapiens (Human), UniProt P08183). The data set can be described thus: MDR1 transfected MDCKII canine Mdr1 knockout permeability/efflux, Assay 7. The conditions noted are these: dog, MDCK-MDR1.
The next data set has as its target BCRP (Homo sapiens (Human), UniProt Q9UNQ0). In words: BCRP transfected MDCKII canine Mdr1 knockout permeability/efflux, Assay 9. Conditions: dog, Assay 9 Pe Ratio, efflux ratio Papp(B-A)/Papp(A-B), BCRP transfected MDCKII canine Mdr1 knockout.

Chain of ErbB2 WT (P04626 23-1255): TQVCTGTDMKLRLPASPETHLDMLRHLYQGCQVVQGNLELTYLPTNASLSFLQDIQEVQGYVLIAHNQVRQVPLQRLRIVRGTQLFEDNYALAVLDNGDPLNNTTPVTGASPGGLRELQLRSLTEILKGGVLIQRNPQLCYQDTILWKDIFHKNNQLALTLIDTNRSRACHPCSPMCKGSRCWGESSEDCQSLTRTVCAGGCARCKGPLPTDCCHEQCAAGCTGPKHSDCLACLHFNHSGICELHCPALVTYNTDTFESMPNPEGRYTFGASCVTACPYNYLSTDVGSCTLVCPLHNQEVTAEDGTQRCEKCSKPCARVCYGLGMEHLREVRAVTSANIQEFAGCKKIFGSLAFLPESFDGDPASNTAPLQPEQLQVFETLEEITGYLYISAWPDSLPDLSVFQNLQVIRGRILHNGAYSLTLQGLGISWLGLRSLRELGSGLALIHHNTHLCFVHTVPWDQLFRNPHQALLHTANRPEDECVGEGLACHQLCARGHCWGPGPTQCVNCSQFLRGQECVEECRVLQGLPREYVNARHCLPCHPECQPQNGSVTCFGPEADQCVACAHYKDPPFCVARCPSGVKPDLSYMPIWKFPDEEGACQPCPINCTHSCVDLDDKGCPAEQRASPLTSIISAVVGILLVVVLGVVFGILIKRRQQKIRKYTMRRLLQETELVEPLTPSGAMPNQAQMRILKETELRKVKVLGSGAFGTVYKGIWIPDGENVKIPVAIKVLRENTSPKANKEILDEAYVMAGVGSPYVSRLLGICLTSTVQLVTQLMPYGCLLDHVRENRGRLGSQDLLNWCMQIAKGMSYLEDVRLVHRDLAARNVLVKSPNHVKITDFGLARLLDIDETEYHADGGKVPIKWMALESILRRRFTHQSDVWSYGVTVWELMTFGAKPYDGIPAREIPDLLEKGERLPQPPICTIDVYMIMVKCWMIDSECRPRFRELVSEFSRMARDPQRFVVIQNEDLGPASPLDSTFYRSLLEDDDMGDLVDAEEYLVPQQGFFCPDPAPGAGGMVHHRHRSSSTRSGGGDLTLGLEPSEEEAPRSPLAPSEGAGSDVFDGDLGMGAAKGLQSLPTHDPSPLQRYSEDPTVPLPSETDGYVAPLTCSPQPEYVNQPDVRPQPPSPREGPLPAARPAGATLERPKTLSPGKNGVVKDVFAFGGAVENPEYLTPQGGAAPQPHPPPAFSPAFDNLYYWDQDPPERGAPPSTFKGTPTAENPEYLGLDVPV
Chain of MDR1 (P-gp) (P08183 whole entry): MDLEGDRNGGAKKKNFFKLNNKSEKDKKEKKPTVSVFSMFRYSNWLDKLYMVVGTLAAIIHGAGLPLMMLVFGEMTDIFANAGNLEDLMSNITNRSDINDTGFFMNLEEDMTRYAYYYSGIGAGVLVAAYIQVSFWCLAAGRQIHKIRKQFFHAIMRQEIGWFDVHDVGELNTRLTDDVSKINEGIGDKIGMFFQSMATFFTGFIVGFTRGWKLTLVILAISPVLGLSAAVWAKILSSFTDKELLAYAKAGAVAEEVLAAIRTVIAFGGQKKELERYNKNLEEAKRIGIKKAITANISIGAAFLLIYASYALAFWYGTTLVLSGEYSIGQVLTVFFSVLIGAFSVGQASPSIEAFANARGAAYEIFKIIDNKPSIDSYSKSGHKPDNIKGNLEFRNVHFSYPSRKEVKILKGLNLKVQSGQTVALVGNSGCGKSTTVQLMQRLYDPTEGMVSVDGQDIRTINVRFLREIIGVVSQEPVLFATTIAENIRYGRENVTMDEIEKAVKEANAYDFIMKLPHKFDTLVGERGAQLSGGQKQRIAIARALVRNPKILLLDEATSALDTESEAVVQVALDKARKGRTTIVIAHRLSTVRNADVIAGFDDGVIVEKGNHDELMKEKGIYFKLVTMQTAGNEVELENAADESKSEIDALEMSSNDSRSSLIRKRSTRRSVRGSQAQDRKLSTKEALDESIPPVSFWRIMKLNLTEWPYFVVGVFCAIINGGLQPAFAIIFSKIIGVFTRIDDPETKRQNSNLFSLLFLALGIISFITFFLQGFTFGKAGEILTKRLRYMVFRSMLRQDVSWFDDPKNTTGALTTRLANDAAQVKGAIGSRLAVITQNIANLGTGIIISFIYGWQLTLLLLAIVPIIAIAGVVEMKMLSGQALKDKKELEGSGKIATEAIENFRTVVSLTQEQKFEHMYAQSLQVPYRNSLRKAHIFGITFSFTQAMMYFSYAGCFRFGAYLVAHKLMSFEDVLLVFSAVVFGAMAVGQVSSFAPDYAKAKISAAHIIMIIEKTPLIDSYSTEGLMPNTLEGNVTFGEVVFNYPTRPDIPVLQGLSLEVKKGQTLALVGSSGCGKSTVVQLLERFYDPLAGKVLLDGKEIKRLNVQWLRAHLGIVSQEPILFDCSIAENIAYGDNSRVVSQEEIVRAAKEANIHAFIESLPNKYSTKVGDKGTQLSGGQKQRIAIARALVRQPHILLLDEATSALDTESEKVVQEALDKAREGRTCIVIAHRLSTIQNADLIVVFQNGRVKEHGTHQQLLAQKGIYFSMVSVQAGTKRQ
Chain of BCRP (Q9UNQ0 whole entry): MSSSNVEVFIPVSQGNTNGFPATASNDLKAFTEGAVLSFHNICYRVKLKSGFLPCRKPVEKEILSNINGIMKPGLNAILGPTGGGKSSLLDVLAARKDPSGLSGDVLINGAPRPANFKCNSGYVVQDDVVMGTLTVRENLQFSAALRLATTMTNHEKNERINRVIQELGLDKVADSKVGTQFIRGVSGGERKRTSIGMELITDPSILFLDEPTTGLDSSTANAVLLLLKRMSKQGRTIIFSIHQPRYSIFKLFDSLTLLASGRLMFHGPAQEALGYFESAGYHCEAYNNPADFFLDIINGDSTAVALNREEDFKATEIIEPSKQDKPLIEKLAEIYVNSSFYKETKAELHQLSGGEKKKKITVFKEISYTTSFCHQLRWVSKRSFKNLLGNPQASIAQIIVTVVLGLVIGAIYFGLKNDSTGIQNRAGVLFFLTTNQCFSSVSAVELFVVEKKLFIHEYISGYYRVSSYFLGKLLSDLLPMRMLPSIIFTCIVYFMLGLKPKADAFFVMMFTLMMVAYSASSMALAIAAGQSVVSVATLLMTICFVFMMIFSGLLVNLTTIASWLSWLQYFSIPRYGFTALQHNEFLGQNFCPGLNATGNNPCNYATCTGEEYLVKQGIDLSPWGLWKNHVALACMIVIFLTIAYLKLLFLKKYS
Method for MDR1 (P-gp): Both MDR1 transfected LLC-PK1 (Assay 6) and MDR1 transfected MDCKII canine Mdr1 knockout cells (Assay 7) were cultured and plated according to manufacturer's recommendations with the exception that the passage media for the MDR1 transfected LLC-PK1 cell line contained only 2% fetal bovine serum so as to extend passage time out to seven days.
Both positive and negative controls were used to assess functionality of P-gp or BCRP efflux in the assays. Stock solutions for assay controls and the test article were prepared in DMSO for final test concentration of 1 μM. Final organic concentration in the assay was 1%. All dosing solutions contained 10 μM lucifer yellow to monitor MDCKII cell monolayer integrity.
For the apical to basolateral determination (A to B), 75 μL of the test article in transport buffer were added to the apical side of the individual transwells and 250 μL of basolateral media, without compound or lucifer yellow, were added to each well. For the basolateral to apical determination (B to A), 250 μL of test article in transport buffer were added to each well and 75 μL transport buffer, without compound or lucifer yellow, were added to each transwell. All tests were performed in triplicate, and each compound was tested for both apical to basolateral and basolateral to apical transport. The plates were incubated for 2 hours on a Lab-Line Instruments Titer Orbital Shaker (VWR, West Chester, PA) at 50 rpm and 37° C. with 5% CO2. All culture plates were removed from the incubator, 50 μL of media were removed from the apical and basolateral portion of each well, and added to 150 μL of 1 μM labetalol in 2:1 acetonitrile (ACN): H2O, v/v.
The plates were read using a Molecular Devices (Sunnyvale, CA) Gemini Fluorometer to evaluate the lucifer yellow concentrations at excitation/emission wavelengths of 425/535 nm. These values were accepted when found to be below 2% for apical to basolateral and 5% basolateral to apical flux across the MDR1-transfected LLC-PK1 or BCRP-transfected MDCKII cell monolayers. The plates were sealed, and the contents of each well analyzed by LC MS/MS. The compound concentrations were determined from the ratio of the peak areas of the compound to the internal standard (labetalol) in comparison to the dosing solution.
A MDS Sciex API 4000 (Applied Biosystems, Foster City, CA) mass spectrometer was used for detection of the analytes in the ion spray positive mode. Analyte responses were measured by multiple reaction monitoring (“MRM”) of transitions unique to each compound (the protonated precursor ion and selected product ions for each test article and m/z 329 to m/z 162 for labetalol, the internal standard.
The total run time, including re-equilibration, for a single injection was 1.2 minutes. […] The total run time, including re-equilibration, for a single injection was 0.61 minutes.
An efflux ratio is calculated from the mean apical to basolateral (A-B) Papp data and basolateral to apical (B-A) Papp data: Efflux ratio=Papp(B−A)/Papp(A−B)

With `Cc1cc(Nc2ncnc3cnc(N4C[C@@H](F)[C@@H](O)C4)nc23)ccc1Oc1ccc2c(c1)ncn2C` [Example 91, (3S,4R)-4-fluoro-1-(8-((3-methyl-4-((1-methyl-1H-benzo[d]imidazol-5-yl)oxy)phenyl)amino)pyrimido[5,4-d]pyrimidin-2-yl)pyrrolidin-3-ol], the IC50 is 12.8 nM in data set [1]; 20.6 nM at ErbB2 WT; 6830 nM on EGFR; 14.1 nM in data set [2]; not below 5000 nM against EGFR wild type (EGFR WT). Also, the values for the efflux ratio at 2 h, 1 μM on MDR1 (P-gp) and at BCRP were 2.5 and 50.1, respectively.
Take `Cc1cc(Nc2ncnc3cnc(N4CC[C@@](C)(O)C4)nc23)ccc1Oc1ccn2ncnc2c1` [Example 110, (R)-1-(8-((4-([1,2,4]triazolo[1,5-a]pyridin-7-yloxy)-3-methylphenyl)amino)pyrimido[5,4-d]pyrimidin-2-yl)-3-methylpyrrolidin-3-ol]: the concentration for half-maximal inhibition (IC50) in data set [1] is 33.5 nM; against ErbB2 WT, 32.8 nM; at EGFR it was 3170 nM; in data set [2] it was 61.7 nM; on EGFR wild type (EGFR WT) it was not below 5000 nM. The results for the efflux ratio at 2 h, 1 μM at MDR1 (P-gp) and on BCRP were 1.9 and 32.2, respectively.
In the case of `Cc1cc(Nc2ncnc3cnc(N4CC[C@@H](C(C)(C)O)C4)nc23)ccc1Oc1ccc2c(c1)ncn2C` [Example 113, (R)-2-(1-(8-((3-methyl-4-((1-methyl-1H-benzo[d]imidazol-5-yl)oxy)phenyl)amino)pyrimido[5,4-d]pyrimidin-2-yl)pyrrolidin-3-yl)propan-2-ol], the half-inhibitory concentration (IC50) in data set [1] is 13.1 nM; against ErbB2 WT, 23 nM; on EGFR, 8480 nM; in data set [2], 9.5 nM; at EGFR wild type (EGFR WT), not below 5000 nM. The efflux ratio at 2 h, 1 μM at MDR1 (P-gp) stood at 0.9; on BCRP, 11.
For the molecule `Cn1cnc2cc(Oc3ccc(Nc4ncnc5cnc(N6CCC7COCC76)nc45)cc3Cl)ccc21` (stereo not drawn) [Example 114, N-(3-chloro-4-((1-methyl-1H-benzo[d]imidazol-5-yl)oxy)phenyl)-6-(hexahydro-1H-furo[3,4-b]pyrrol-1-yl)pyrimido[5,4-d]pyrimidin-4-amine], the IC50 is 50.1 nM in data set [1]; 96.3 nM at ErbB2 WT; 7890 nM against EGFR; 20.1 nM in data set [2]; not below 5000 nM at EGFR wild type (EGFR WT). For the same molecule, the efflux ratio at 2 h, 1 μM at MDR1 (P-gp) came to 1.5; at BCRP, 1.2.
For the molecule `Cc1c(Oc2ccc3c(c2)ncn3C)ccc(Nc2ncnc3cnc(N(C)[C@H]4C[C@@](C)(O)C4)nc23)c1F` [Example 116, (1s,3s)-3-((8-((2-fluoro-3-methyl-4-((1-methyl-1H-benzo[d]imidazol-5-yl)oxy)phenyl)amino)pyrimido[5,4-d]pyrimidin-2-yl)(methyl)amino)-1-methylcyclobutan-1-ol], the half-inhibitory concentration (IC50) in data set [1] was 17.3 nM; on ErbB2 WT, 14.8 nM; on EGFR, 1170 nM; in data set [2], 27.8 nM; against EGFR wild type (EGFR WT), not below 5000 nM. The efflux ratio at 2 h, 1 μM was 1.3 at MDR1 (P-gp) and 1.8 at BCRP.
For the molecule `Cc1cc(Nc2ncnc3cnc(N4CCC(C)(O)CC4)nc23)ccc1Oc1ccn2ncnc2c1` [Example 120, 1-(8-((4-([1,2,4]triazolo[1,5-a]pyridin-7-yloxy)-3-methylphenyl)amino)pyrimido[5,4-d]pyrimidin-2-yl)-4-methylpiperidin-4-ol], the half-inhibitory concentration (IC50) is 20.6 nM in data set [1]; 19 nM against ErbB2 WT; 5340 nM at EGFR; 49.4 nM in data set [2]; not below 5000 nM against EGFR wild type (EGFR WT). Also, the efflux ratio at 2 h, 1 μM was found to be 1.3 on MDR1 (P-gp) and 7.8 on BCRP.
Regarding `CC(C)(O)[C@@H]1CCN(c2ncc3ncnc(Nc4ccc(Oc5ccn6ncnc6c5)c(Cl)c4)c3n2)C1` [Example 122, (R)-2-(1-(8-((4-([1,2,4]triazolo[1,5-a]pyridin-7-yloxy)-3-chlorophenyl)amino)pyrimido[5,4-d]pyrimidin-2-yl)pyrrolidin-3-yl)propan-2-ol], the 50% inhibitory concentration (IC50) in data set [1] is 15.2 nM; against ErbB2 WT, 22.7 nM; against EGFR, 953 nM; in data set [2], 19.7 nM; at EGFR wild type (EGFR WT), not below 5000 nM. Moreover, the efflux ratio at 2 h, 1 μM came out at 1.7 at MDR1 (P-gp) and 7.3 at BCRP.
Take `CN(c1ncc2ncnc(Nc3ccc(Oc4ccc5c(c4)ncn5C)c(Cl)c3)c2n1)C1COC1` [Example 123, N8-(3-chloro-4-((1-methyl-1H-benzo[d]imidazol-5-yl)oxy)phenyl)-N2-methyl-N2-(oxetan-3-yl)pyrimido[5,4-d]pyrimidine-2,8-diamine]: the half-inhibitory concentration (IC50) in data set [1] is 26.5 nM; on ErbB2 WT, 118 nM; against EGFR, not below 10000 nM; in data set [2], 13.2 nM; on EGFR wild type (EGFR WT), not below 5000 nM. For the same molecule, the efflux ratio at 2 h, 1 μM is 1.6 on MDR1 (P-gp) and 2.4 on BCRP.
Take `Cc1cc(Nc2ncnc3cnc(N4CC[C@@H](C(C)(C)O)C4)nc23)ccc1Oc1ccn2ncnc2c1` [Example 124, (R)-2-(1-(8-((4-([1,2,4]triazolo[1,5-a]pyridin-7-yloxy)-3-methylphenyl)amino)pyrimido[5,4-d]pyrimidin-2-yl)pyrrolidin-3-yl)propan-2-ol]: the IC50 is 16 nM in data set [1]; 14.3 nM against ErbB2 WT; 2750 nM against EGFR; 64.8 nM in data set [2]; not below 5000 nM on EGFR wild type (EGFR WT). Further, the efflux ratio at 2 h, 1 μM at MDR1 (P-gp) was 1.4; on BCRP, 10.3.
Turning to `Cc1cc(Nc2ncnc3cnc(N(C)[C@@H]4CCOC4)nc23)ccc1Oc1ccc2c(c1)ncn2C` [Example 128, (R)—N2-methyl-N8-(3-methyl-4-((1-methyl-1H-benzo[d]imidazol-5-yl)oxy)phenyl)-N2-(tetrahydrofuran-3-yl)pyrimido[5,4-d]pyrimidine-2,8-diamine], the IC50 in data set [1] is 21 nM; on ErbB2 WT it was 20 nM; on EGFR, 3270 nM; in data set [2], 36.3 nM; at EGFR wild type (EGFR WT), not below 5000 nM. In addition, the efflux ratio at 2 h, 1 μM came out at 1.6 on MDR1 (P-gp) and 1.4 on BCRP.
As to `Cc1cc(Nc2ncnc3cnc(N4CCC5COCC54)nc23)ccc1Oc1ccc2c(c1)ncn2C` (stereo not drawn) [Example 129, 6-(hexahydro-1H-furo[3,4-b]pyrrol-1-yl)-N-(3-methyl-4-((1-methyl-1H-benzo[d]imidazol-5-yl)oxy)phenyl)pyrimido[5,4-d]pyrimidin-4-amine], the IC50 in data set [1] is 12.4 nM; at ErbB2 WT, 15 nM; against EGFR, 865 nM; in data set [2], 7.6 nM; against EGFR wild type (EGFR WT) it was not below 5000 nM. The efflux ratio at 2 h, 1 μM came out at 1.4 at MDR1 (P-gp) and 1.7 at BCRP.
For the molecule `FC(F)(F)[C@@H]1CN(c2ncc3ncnc(Nc4ccc(Oc5ccn6ncnc6c5)c(Cl)c4)c3n2)CCN1` [Example 130, (S)—N-(4-([1,2,4]triazolo[1,5-a]pyridin-7-yloxy)-3-chlorophenyl)-6-(3-(trifluoromethyl)piperazin-1-yl)pyrimido[5,4-d]pyrimidin-4-amine], the IC50 is 41.7 nM in data set [1]; 36.3 nM on ErbB2 WT; 2560 nM at EGFR; 43.3 nM in data set [2]; not below 5000 nM at EGFR wild type (EGFR WT). Besides, the efflux ratio at 2 h, 1 μM was 1.3 at MDR1 (P-gp) and 1 at BCRP.
